Data on 15 compounds can be found in ChEMBL document CHEMBL1857833, “Screening and optimization of specific chemical series against human African Trypanosomiasis (HAT)”.

Converted amounts (≈) assume the structure as drawn. “And” between values parts separate entries of the source, which are not always exact repeats. Equal values may be shown once. Some results are limits rather than exact numbers.

Data set [1] in a line: DNDI: Cytotoxicity against L929 mouse fibroblasts, CYTO-SP, 24 hour. The following applies: mouse, L929 mouse fibroblasts. The class given is toxicity, cell-based.
The nature of data set [2]: DNDI: Solubility in phosphate buffered saline at pH7.4 measured by nephelometry at room temperature (NEPH-RT). Particulars: pH 7.4. The class given is physicochemical.
Data set [3] deals with Trypanosoma brucei. Description: DNDI: Inhibition of Human African Trypanosomiasis, Cross 22, in vitro. The class given is functional, organism-based.
The subject of data set [4] is Trypanosoma brucei. As to the kind of experiment: DNDI: Inhibition of Human African Trypanosomiasis, SBRI 427, in vitro. Type of data set: functional, organism-based.
Data set [5] can be described thus: DNDI: Cytotoxicity against L929 mouse fibroblasts, 72 hour. Particulars: mouse, L929 mouse fibroblasts. The class given is toxicity, cell-based.
Data set [6] can be described thus: DNDI: Lipophilicity measured in Chromatographic hydrophobicity index (CHI) assay, pH 7.4. Type of data set: physicochemical. The following applies: buffer.
The conditions of data set [7]: mouse, microsomes, 1 µM.
Description: DNDI: in vitro intrinsic clearance in mouse liver microsomes at a concentration of 1uM
Data set [8] is described as follows: in vitro. Particulars: mouse, liver microsomes, t (1 / 2).
Description: DNDI: half life in mouse liver microsomes at a concentration of 1uM
[9] abbreviates: Trypanosoma brucei, SBRI 427, read-out: IC50.

The IC50 is the concentration needed to halve the response being measured. Usually solubility (kinetic) stands for the concentration staying in solution when a stock, usually in DMSO, is diluted into the medium. What is called chromatographic logD is a lipophilicity value derived from retention on a column. A higher chromatographic logD goes with higher lipophilicity. On to `CC(C)(C)c1ccc(-c2nc(CNC3CCCCCC3)co2)cc1`, for which the IC50 at 24 h in data set [1] is over 50 µg/mL. This compound also showed a solubility (kinetic) in data set [2] of 25 µM (≈ 8.16 µg/mL). Further, the IC50 in data set [3] is 0.44 µg/mL (≈ 1.35 µM); in data set [4], 0.3 µg/mL and 0.49 µg/mL; in data set [4] (setting [9]), 0.39 µg/mL (≈ 1.19 µM). The IC50 at 72 h in data set [5] is under 3.13 µg/mL. In data set [6], this compound yielded a chromatographic logD of 5.41.

`Brc1ccc(-c2nc(CNC3CCCCCC3)co2)cc1`: the IC50 at 24 h in data set [1] was over 50 µg/mL. The IC50 is 3.56 µg/mL (≈ 10.2 µM) in data set [3]; 3.22 µg/mL and 1.69 µg/mL and 3.92 µg/mL in data set [4]. Moreover, in data set [5], the IC50 at 72 h worked out at 15.7 µg/mL (≈ 44.9 µM).

In data set [1], `Clc1ccc(-c2nc(CNC3[C@H]4C[C@@H]5C[C@@H](C[C@H]3C5)C4)co2)cc1` (stereo partly specified) returned an IC50 at 24 h of over 50 µg/mL. The IC50 was 2.29 µg/mL (≈ 6.68 µM) in data set [3]; 2.01 µg/mL and 2.82 µg/mL in data set [4]; 1.8 µg/mL (≈ 5.25 µM) in data set [4] (setting [9]). The IC50 at 72 h in data set [5] worked out at 6.73 µg/mL (≈ 19.6 µM).

What is called half-life is the time in which the quantity being followed falls by half. In turn, `CCOc1ccc(-c2nc(CNC3CCCCCC3)co2)cc1` had a CLint in vitro in data set [7] of 22 µL/min/mg. In data set [1], half-maximal inhibition (IC50 at 24 h) required 25.1 µg/mL (≈ 80 µM). For the same compound, the IC50 in data set [3] is 1.12 µg/mL (≈ 3.56 µM); in data set [4], 1.36 µg/mL and 0.96 µg/mL; in data set [4] (setting [9]), 1.46 µg/mL (≈ 4.64 µM). In data set [8], this compound yielded a half-life at 1 µM of 39 min. This compound registered an IC50 at 72 h in data set [5] of under 3.13 µg/mL.

With `COc1ccc(/C(=N\O)Nc2ccccc2)cc1`, the CLint in vitro in data set [7] was 121 µL/min/mg. The IC50 at 24 h in data set [1] is over 50 µg/mL. For the same compound, the kinetic solubility in data set [2] is over 200 µM. This compound also gave a half-life at 1 µM in data set [8] of 7 min. Further, the IC50 in data set [4] (setting [9]) is 2.72 µg/mL (≈ 11.2 µM). In addition, the chromatographic logD in data set [6] came out at 3.1.

`C[C@@H]1[C@H]2C[C@@H](C[C@H]1NCc1coc(-c3ccc(Br)cc3)n1)C2(C)C` returned an IC50 at 24 h in data set [1] of over 50 µg/mL. Further, the IC50 in data set [3] was 0.82 µg/mL (≈ 2.11 µM); in data set [4] it was 0.42 µg/mL and 0.92 µg/mL and 0.85 µg/mL. The same compound gave an IC50 at 72 h in data set [5] of under 3.13 µg/mL.

In data set [1], `C[C@@H]1[C@H]2C[C@@H](C[C@H]1NCc1coc(-c3ccc(C(C)(C)C)cc3)n1)C2(C)C` returned an IC50 at 24 h of over 50 µg/mL. In addition, the IC50 in data set [3] and in data set [4] (setting [9]) was over 5 µg/mL throughout. Besides, the IC50 at 72 h in data set [5] was over 50 µg/mL.

`CCCCOc1ccc(-c2nc(CNC[C@@H]3CC[C@H]4C[C@@H]3C4(C)C)co2)cc1` displayed a CLint in vitro in data set [7] of 95 µL/min/mg. The compound also came in with an IC50 at 24 h in data set [1] of 16.4 µg/mL (≈ 42.9 µM). The IC50 is 1.03 µg/mL (≈ 2.69 µM) in data set [3]; 1.54 µg/mL and 0.83 µg/mL and 0.57 µg/mL in data set [4]. The half-life at 1 µM in data set [8] is 9 min. This compound gave an IC50 at 72 h in data set [5] of under 3.13 µg/mL.

For `C[C@H]1C(NCc2coc(-c3ccc(Cl)cc3)n2)C[C@@H]2C[C@H]1C2(C)C` (stereo partly specified), the IC50 at 24 h in data set [1] was over 50 µg/mL. The IC50 was 0.9 µg/mL (≈ 2.61 µM) in data set [3]; 0.71 µg/mL and 0.8 µg/mL in data set [4]; 1.06 µg/mL (≈ 3.07 µM) in data set [4] (setting [9]). The compound further had an IC50 at 72 h in data set [5] of under 3.13 µg/mL.

`Brc1ccc(-c2nc(CNC3[C@H]4C[C@@H]5C[C@@H](C[C@H]3C5)C4)co2)cc1` (stereo partly specified) registered a half-maximal inhibitory concentration (IC50) at 24 h in data set [1] of over 50 µg/mL. Further, the IC50 was 2.26 µg/mL (≈ 5.83 µM) in data set [3]; 1.2 µg/mL and 3.02 µg/mL and 2.81 µg/mL in data set [4]. For the same compound, the IC50 at 72 h in data set [5] was found to be 8.08 µg/mL (≈ 20.9 µM).

With `CC(C)(C)c1ccc(-c2nc(CNC[C@@H]3CC[C@H]4C[C@@H]3C4(C)C)co2)cc1`, the IC50 at 24 h in data set [1] was over 50 µg/mL. Moreover, the IC50 in data set [3] and in data set [4] (setting [9]) was over 5 µg/mL in each case. The compound further had a 50% inhibitory concentration (IC50) at 72 h in data set [5] of over 50 µg/mL.

In data set [1], `CC1CC(NCc2coc(-c3ccc(Br)cc3)n2)CC(C)(C)C1` (stereo unspecified) showed an IC50 at 24 h of over 50 µg/mL. Also, the IC50 is 0.87 µg/mL (≈ 2.31 µM) in data set [3]; 0.54 µg/mL and 0.97 µg/mL and 1.17 µg/mL in data set [4]. This compound also displayed an IC50 at 72 h in data set [5] of under 3.13 µg/mL.

`CC1(C)[C@H]2CC[C@@H](CNCc3coc(-c4ccc(Br)cc4)n3)[C@@H]1C2` registered an IC50 at 24 h in data set [1] of over 50 µg/mL. Besides, the IC50 in data set [3] and in data set [4] (setting [9]) was over 5 µg/mL throughout. This compound also came in with an IC50 at 72 h in data set [5] of 50 µg/mL (≈ 128 µM).

For the compound `CCCCCOc1ccc(-c2nc(CNC3CC(C)CC(C)(C)C3)co2)cc1` (stereo unspecified), the CLint in vitro in data set [7] worked out at 8 µL/min/mg. For the same compound, the IC50 at 24 h in data set [1] is over 50 µg/mL. Moreover, in data set [2], the solubility (kinetic) was found to be 2 µM (≈ 0.769 µg/mL). Moreover, the half-life at 1 µM in data set [8] came out at 107 min. The IC50 in data set [4] (setting [9]) came to 0.16 µg/mL (≈ 0.416 µM). Besides, the IC50 at 72 h in data set [5] is under 3.13 µg/mL. In data set [6], the chromatographic logD is 6.02.

In data set [1], `Clc1ccc(-c2nc(CNC3CCCCCC3)co2)cc1` registered an IC50 at 24 h of 26.6 µg/mL (≈ 87.3 µM). Further, the IC50 in data set [3] is 1.45 µg/mL (≈ 4.76 µM); in data set [4], 1.61 µg/mL and 1.55 µg/mL; in data set [4] (setting [9]), 1.27 µg/mL (≈ 4.17 µM). This compound also yielded an IC50 at 72 h in data set [5] of 3.43 µg/mL (≈ 11.3 µM).
